One molecule from patent US20240217950A1, “PESTICIDALLY ACTIVE CYCLIC AMINE COMPOUNDS” (SYNGENTA CROP PROTECTION AG, priority 2021, published 2024) can be followed below.

By mortality is commonly meant the percentage killed.

For this assay, the system named is Tetranychus urticae (Two-Spotted Spider Mite). Nature of the assay: Tetranychus urticae (two-spotted spider mite) feeding/contact activity on bean leaf discs. Type of assay: in vivo. As to conditions: foliar, 192 h, application rate of 200 ppm, sprayed bean leaf discs, mixed population (mobile stages), 8 days after infestation. As to the method: Example B1: Tetranychus urticae (Two-Spotted Spider Mite)
Feeding/contact activity Bean leaf discs on agar in 24-well microtiter plates were sprayed with aqueous test solutions prepared from 10′000 ppm DMSO stock solutions. After drying the leaf discs were infested with a mite population of mixed ages. The samples were assessed for mortality on mixed population (mobile stages) 8 days after infestation.

In turn, `COCc1nc(OCc2cc(C(F)(F)F)ccc2F)c(C#N)cc1C(=O)N1CCC(c2noc(C)n2)CC1` [Compound P1.2, 2-[[2-fluoro-5-(trifluoromethyl)phenyl]methoxy]-6-(methoxymethyl)-5-[4-(5-methyl-1,2,4-oxadiazol-3-yl)piperidine-1-carbonyl]pyridine-3-carbonitrile] registered a mortality at 200 ppm of no less than 80%.
